Test results from patent US20180333382A1, “PHARMACEUTICAL COMPOSITIONS COMPRISING DGLA AND USE OF SAME” (DS Biopharma Limited, priority 2017, published 2018).
“And” between values parts separate entries of the source, which are not always exact repeats. Identical values can stand only once.

Columns and labels:
[1] = system: spontaneous hypertensive rats; experiment: Arterial pressure and phenylephrine-induced hypertensive response after seven days of gavage (DGLA, aspirin, DGLA + aspirin); format: in vivo, rat; conditions: for Mean arterial pressure at baseline, Average SAP / Mean arterial pressure with an intravenous dose of Phenylephrine 20 μg/kg, Average SAP / Mean arterial pressure at baseline, individual rats / Mean arterial pressure with an intravenous dose of Phenylephrine 20 μg/kg, individual rats: seven consecutive days of gavage; for Mean arterial pressure at baseline, individual rats / Mean arterial pressure with an intravenous dose of Phenylephrine 20 μg/kg, individual rats: Rat #1-#5; for Arterial pressure, Diastol / Arterial pressure, Systol / Mean systemic arterial pressure: seven days of gavage, before phenylephrine
Procedure: An in vivo investigation of anti-hypertension efficacy following co-administration of DGLA and aspirin in spontaneous hypertensive rats was conducted. This experiment investigated the efficacy of DGLA when co-administered chronically with aspirin to reduce the hypertensive response induced acutely by phenylephrine in spontaneous hypertensive rats. Spontaneously hypertensive adult male rats (250-300 g), bred by Charles River Laboratories, were used for this assay. The animals were identified upon arrival as per CCPA guidelines. The animals were pair-housed by group (low dose+aspirin, high dose+aspirin or aspirin alone) for the duration of the oral gavage prior to surgery. All animal care and vivarium maintenance was recorded, with documents kept at the test facility.
The concentrations of DGLA to be tested (50 and 500 mg/kg) as well as the concentration of aspirin (10 mg/kg) were selected by the Sponsor based on information available at the time of design of this study. They were selected to cover a range of concentrations useful for the identification of the mechanism of action of the test article.
All solution preparations were documented on a Solution Contents Form, defining labelling information and all relevant information on reagents: batch number, storage conditions, contents, and preparation/expiry dates.
The test article was formulated using olive oil as the vehicle. This stock solution was then administered by oral gavage once per day for seven consecutive days. A low and a high dose (50 mg/kg and 500 mg/kg) were tested.
A 5 mg/ml stock solution of aspirin was prepared by dissolving the appropriate amount of aspirin in 100% DMSO which was then diluted in water. The concentration of DMSO was less than 1%. The appropriate volume was administered by oral gavage to each animal once per day for seven consecutive days. The stock solution was stored at room temperature and was considered stable for the duration of the gavage.
The appropriate volume was administered to each animal by an intravenous injection at the end of the experiment on the surgery day. The stock solution was stored at 4° C. and was considered stable for the duration of the experiment.
A stock solution of phenylephrine of 1 mg/ml were prepared in PBS (pH=7.4±0.05). The stock solution was stored at 4° C. The expiration date was set at 14 days after preparation.
Male spontaneous hypertensive rats weighing approximately 300 g arrived at the facility at least two days before beginning the oral gavage. Animals were assigned to one of three groups (low dose+aspirin, high dose+aspirin, and aspirin), and were pair-housed during the acclimation period. Each group (n=4) received the appropriate compound by oral gavage using a 16 G feeding needle. The stock solution was administered once per day for seven consecutive days. On the seventh day of administration, the animals underwent surgery and hypertensive monitoring.
Rats were anesthetized with a 2.5-3.0% isoflurane-O2 mixture in an induction box. When the animals were removed from the induction box, they were connected onto a nose cone to maintain anesthesia during the tracheotomy. The animals were tracheotomised with an endotracheal tube (7 cm length from connector to the tip made with a PE205 tube from BD and a 16 G needle) to facilitate spontaneous breathing, stabilize hemodynamics, and to keep the rat under anesthesia with an isoflurane-O2 mixture. Two catheters were inserted: one in the right femoral artery for systemic arterial pressure (SAP) measurement, and one in the right femoral vein for delivery of the hypertensor and positive control. ECG signals were acquired with ECG contacts placed in a Lead-1 configuration on the anaesthetized animal, and a pulse oxymeter was attached to the animal's hind paw to enable continuous monitoring of the general condition of the rat during the surgical procedure.

[2] = Phase II study: safety (adverse events); format: in vivo, human; conditions: oral, 2 g once daily for 8 weeks
Excerpt: Subjects visited the clinic on 6 occasions: at screening, baseline, week 2, week 4, week 8 (end of treatment/early termination) and week 10 (follow-up). All subjects exited the study at the week 10 visit. The primary efficacy variable was the proportion of patients achieving an IGA of 0 (clear) or 1 (almost clear), and a decrease of at least 2 points in IGA at week 8. Secondary efficacy variables included: IGA at other visits, pruritus (obtained from the SCORAD visual analog scale), EASI, BSA, POEM, DLQI, SCORAD and TEWL (for selected sites only). Safety was assessed through adverse events, physical examination, vital signs and safety laboratory tests (including pregnancy tests for women of childbearing potential). Pharmacokinetic samples were obtained at Baseline (Day 0), week 4 and week 8 visits in order to measure total and free DGLA plasma trough levels. Separate plasma samples were retained for later analysis of total fatty acid profile and interleukin profile.
Laboratory tests were performed at screening, Day 0, Week 4 and Week 8. If Week 8 results indicated a clinically significant change from baseline, laboratory tests were also performed at Week 10. […]
Efficacy was evaluated on the basis of the ITT population and analyses were performed based on the randomized treatment and not on the treatment received. […]

## CCCCC/C=C\C/C=C\C/C=C\CCCCCCC(=O)O [DS107G, Dihomo gamma linolenic acid]
[1]; DGLA 50 mg/kg
  Mean arterial pressure at baseline, Average SAP: 74.5 mm of Hg
  Mean arterial pressure with an intravenous dose of Phenylephrine 20 μg/kg, Average SAP: 115.7 mm of Hg
  Mean arterial pressure at baseline, individual rats: 51.77 mm of Hg and 87.81 mm of Hg and 62.11 mm of Hg and 86.01 mm of Hg and 84.93 mm of Hg
  Mean arterial pressure with an intravenous dose of Phenylephrine 20 μg/kg, individual rats: 91.82 mm of Hg and 137.84 mm of Hg and 105.44 mm of Hg and 132.68 mm of Hg and 110.72 mm of Hg
  Arterial pressure, Diastol: 75 mmHg
  Arterial pressure, Systol: 120 mmHg
  Mean systemic arterial pressure: 90 mmHg
[1]; DGLA 500 mg/kg
  Mean arterial pressure at baseline, Average SAP: 82.2 mm of Hg
  Mean arterial pressure with an intravenous dose of Phenylephrine 20 μg/kg, Average SAP: 112.1 mm of Hg
  Mean arterial pressure at baseline, individual rats: 64.81 mm of Hg and 91.55 mm of Hg and 94.41 mm of Hg and 66.56 mm of Hg and 93.64 mm of Hg
  Mean arterial pressure with an intravenous dose of Phenylephrine 20 μg/kg, individual rats: 105.21 mm of Hg and 119.33 mm of Hg and 118.12 mm of Hg and 97.17 mm of Hg and 120.82 mm of Hg
  Arterial pressure, Diastol: 80 mmHg
  Arterial pressure, Systol: 135 mmHg
  Mean systemic arterial pressure: 98 mmHg
[1]; DGLA 50 or 500 mg/kg alone, effect eliminated by aspirin
  effect on arterial pressure in spontaneously hypertensive rats: successfully decreases the arterial pressure
[1]; spontaneous hypertensive rats treated with DGLA alone, observed previously
  lowering of the mean systemic arterial blood pressure: up to 25%
[2]
  drug related Serious Adverse Events: no drug related Serious Adverse Events
  tolerability: very well tolerated
